According to patent publication US7807439B2, “Staphylococcus aureus-specific detection media and identifying and/or counting method using same” (Biomerieux S.A., priority 2001, dated 2010):

Assays:
Staphylococcus aureus = assay: Experiment 7: effect of maltose, summary; assay type: cell-based; conditions: in particular critical strains (3, 4, 5 and 6)
Protocol: (§1) The maltose is solubilized in water at a concentration of, for example, 100 g/l, and then a sufficient volume to obtain the final concentrations above is added to the three molten media. The Staphylococcal strains derived from the bioMérieux internal collection were seeded onto each one of the chromogenic media on their own (closely spaced perpendicular streaks over the entire surface of the dish) using a suspension at 0.5 MacFarland diluted to 1/30000. The dishes were incubated at 37° C. for 48 hours. The colonies formed were examined visually after 18, 24 and 48 hours of incubation and the intensity of coloration of the colonies was marked.

S. aureus 8311065 = assay: Experiment 7: effect of maltose on α-glucosidase activity, weak inocula; assay type: cell-based, Staphylococcus aureus; design: key: 0 corresponds to a lack of activity; 0.1 corresponds to the presence of a trace of coloration; 0.5 corresponds to the presence of a very pale coloration; 1 corresponds to the presence of a clear coloration of weak intensity; 1.5 corresponds to the presence of a coloration which is intermediate between colorations 1 and 2; 2 corresponds to the presence of a true coloration of medium intensity; 2.5 corresponds to the presence of a coloration which is intermediate between colorations 2 and 3; 3 corresponds to the presence of an intense coloration; 3.5 corresponds to the presence of a coloration which is intermediate between colorations 3 and 4; 4 corresponds to the presence of a very intense coloration; conditions: strain 3
Protocol: as §1, with “marked. The coloration was noted and the intensity of these colorations was marked. The reading scale is the same as that used above for tables 2 and 4.” for “marked.”

S. aureus 8507285 = assay: as above; assay type: cell-based, Staphylococcus aureus; design: key: 0 corresponds to a lack of activity; 0.1 corresponds to the presence of a trace of coloration; 0.5 corresponds to the presence of a very pale coloration; 1 corresponds to the presence of a clear coloration of weak intensity; 1.5 corresponds to the presence of a coloration which is intermediate between colorations 1 and 2; 2 corresponds to the presence of a true coloration of medium intensity; 2.5 corresponds to the presence of a coloration which is intermediate between colorations 2 and 3; 3 corresponds to the presence of an intense coloration; 3.5 corresponds to the presence of a coloration which is intermediate between colorations 3 and 4; 4 corresponds to the presence of a very intense coloration; conditions: strain 4
Protocol: as §1, with “marked. The coloration was noted and the intensity of these colorations was marked. The reading scale is the same as that used above for tables 2 and 4.” for “marked.”

S. aureus 0201035 = assay: as above; assay type: cell-based, Staphylococcus aureus; design: key: 0 corresponds to a lack of activity; 0.1 corresponds to the presence of a trace of coloration; 0.5 corresponds to the presence of a very pale coloration; 1 corresponds to the presence of a clear coloration of weak intensity; 1.5 corresponds to the presence of a coloration which is intermediate between colorations 1 and 2; 2 corresponds to the presence of a true coloration of medium intensity; 2.5 corresponds to the presence of a coloration which is intermediate between colorations 2 and 3; 3 corresponds to the presence of an intense coloration; 3.5 corresponds to the presence of a coloration which is intermediate between colorations 3 and 4; 4 corresponds to the presence of a very intense coloration; conditions: strain 5
Protocol: as §1, with “marked. The coloration was noted and the intensity of these colorations was marked. The reading scale is the same as that used above for tables 2 and 4.” for “marked.”

S. aureus 8507276 = assay: as above; assay type: cell-based, Staphylococcus aureus; design: key: 0 corresponds to a lack of activity; 0.1 corresponds to the presence of a trace of coloration; 0.5 corresponds to the presence of a very pale coloration; 1 corresponds to the presence of a clear coloration of weak intensity; 1.5 corresponds to the presence of a coloration which is intermediate between colorations 1 and 2; 2 corresponds to the presence of a true coloration of medium intensity; 2.5 corresponds to the presence of a coloration which is intermediate between colorations 2 and 3; 3 corresponds to the presence of an intense coloration; 3.5 corresponds to the presence of a coloration which is intermediate between colorations 3 and 4; 4 corresponds to the presence of a very intense coloration; conditions: strain 2
Protocol: as §1, with “marked. The coloration was noted and the intensity of these colorations was marked. The reading scale is the same as that used above for tables 2 and 4.” for “marked.”

S. aureus 7509008 = assay: as above; assay type: cell-based, Staphylococcus aureus; design: key: 0 corresponds to a lack of activity; 0.1 corresponds to the presence of a trace of coloration; 0.5 corresponds to the presence of a very pale coloration; 1 corresponds to the presence of a clear coloration of weak intensity; 1.5 corresponds to the presence of a coloration which is intermediate between colorations 1 and 2; 2 corresponds to the presence of a true coloration of medium intensity; 2.5 corresponds to the presence of a coloration which is intermediate between colorations 2 and 3; 3 corresponds to the presence of an intense coloration; 3.5 corresponds to the presence of a coloration which is intermediate between colorations 3 and 4; 4 corresponds to the presence of a very intense coloration; conditions: strain 1
Protocol: as §1, with “marked. The coloration was noted and the intensity of these colorations was marked. The reading scale is the same as that used above for tables 2 and 4.” for “marked.”

SMILES: OC[C@H]1O[C@H](O[C@H]2[C@H](O)[C@@H](O)C(O)O[C@@H]2CO)[C@H](O)[C@@H](O)[C@@H]1O (mixture of isomers) [Maltose, maltose]
- effect on α-glucosidase expression (Staphylococcus aureus): activates the α-glucosidase expression
- Intensity of coloration of the colonies (S. aureus 8311065; 18 h, Maltose 100 mg/l): 1.3
- Intensity of coloration of the colonies (S. aureus 8311065; 18 h, Maltose 300 mg/l): 1.3
- Intensity of coloration of the colonies (S. aureus 8311065; 18 h, Maltose 400 mg/l): 1.3
- Intensity of coloration of the colonies (S. aureus 8311065; 24 h, Maltose 100 mg/l): 1.7
- Intensity of coloration of the colonies (S. aureus 8311065; 24 h, Maltose 300 mg/l): 1.7
- Intensity of coloration of the colonies (S. aureus 8311065; 24 h, Maltose 400 mg/l): 2
- Intensity of coloration of the colonies (S. aureus 8311065; >40 h, Maltose 100 mg/l): 2.7
- Intensity of coloration of the colonies (S. aureus 8311065; >40 h, Maltose 300 mg/l): 2.7
- Intensity of coloration of the colonies (S. aureus 8311065; >40 h, Maltose 400 mg/l): 2.7
- Intensity of coloration of the colonies (S. aureus 8507285; 18 h, Maltose 100 mg/l): 0
- Intensity of coloration of the colonies (S. aureus 8507285; 18 h, Maltose 300 mg/l): 0
- Intensity of coloration of the colonies (S. aureus 8507285; 18 h, Maltose 400 mg/l): 0
- Intensity of coloration of the colonies (S. aureus 8507285; 24 h, Maltose 100 mg/l): 0.3
- Intensity of coloration of the colonies (S. aureus 8507285; 24 h, Maltose 300 mg/l): 0.3
- Intensity of coloration of the colonies (S. aureus 8507285; 24 h, Maltose 400 mg/l): 0.3
- Intensity of coloration of the colonies (S. aureus 8507285; >40 h, Maltose 100 mg/l): 0.8
- Intensity of coloration of the colonies (S. aureus 8507285; >40 h, Maltose 300 mg/l): 1
- Intensity of coloration of the colonies (S. aureus 8507285; >40 h, Maltose 400 mg/l): 1.3
- Intensity of coloration of the colonies (S. aureus 0201035; 18 h, Maltose 100 mg/l): 0.3
- Intensity of coloration of the colonies (S. aureus 0201035; 18 h, Maltose 300 mg/l): 0.5
- Intensity of coloration of the colonies (S. aureus 0201035; 18 h, Maltose 400 mg/l): 0.5
- Intensity of coloration of the colonies (S. aureus 0201035; 24 h, Maltose 100 mg/l): 0.5
- Intensity of coloration of the colonies (S. aureus 0201035; 24 h, Maltose 300 mg/l): 1
- Intensity of coloration of the colonies (S. aureus 0201035; 24 h, Maltose 400 mg/l): 1
- Intensity of coloration of the colonies (S. aureus 0201035; >40 h, Maltose 100 mg/l): 0.8
- Intensity of coloration of the colonies (S. aureus 0201035; >40 h, Maltose 300 mg/l): 1
- Intensity of coloration of the colonies (S. aureus 0201035; >40 h, Maltose 400 mg/l): 1.3
- Intensity of coloration of the colonies (S. aureus 8507276; 18 h, Maltose 100 mg/l): 2
- Intensity of coloration of the colonies (S. aureus 8507276; 18 h, Maltose 300 mg/l): 2
- Intensity of coloration of the colonies (S. aureus 8507276; 18 h, Maltose 400 mg/l): 2
- Intensity of coloration of the colonies (S. aureus 8507276; 24 h, Maltose 100 mg/l): 2.7
- Intensity of coloration of the colonies (S. aureus 8507276; 24 h, Maltose 300 mg/l): 2.7
- Intensity of coloration of the colonies (S. aureus 8507276; 24 h, Maltose 400 mg/l): 2.7
- Intensity of coloration of the colonies (S. aureus 8507276; >40 h, Maltose 100 mg/l): 3
- Intensity of coloration of the colonies (S. aureus 8507276; >40 h, Maltose 300 mg/l): 3
- Intensity of coloration of the colonies (S. aureus 8507276; >40 h, Maltose 400 mg/l): 3
- Intensity of coloration of the colonies (S. aureus 7509008; 18 h, Maltose 100 mg/l): 1.3
- Intensity of coloration of the colonies (S. aureus 7509008; 18 h, Maltose 300 mg/l): 1.3
- Intensity of coloration of the colonies (S. aureus 7509008; 18 h, Maltose 400 mg/l): 1.7
- Intensity of coloration of the colonies (S. aureus 7509008; 24 h, Maltose 100 mg/l): 1.7
- Intensity of coloration of the colonies (S. aureus 7509008; 24 h, Maltose 300 mg/l): 1.7
- Intensity of coloration of the colonies (S. aureus 7509008; 24 h, Maltose 400 mg/l): 3
- Intensity of coloration of the colonies (S. aureus 7509008; >40 h, Maltose 100 mg/l): 2
- Intensity of coloration of the colonies (S. aureus 7509008; >40 h, Maltose 300 mg/l): 2
- Intensity of coloration of the colonies (S. aureus 7509008; >40 h, Maltose 400 mg/l): 2.7
